Results taken from US20060122174A1, “Antiviral treatment” (Henderson Morley Research & Development Limited, priority 2001, published 2006).
Like-named read-outs stand apart in the source and are kept apart here.

Test system: type 2 herpes simplex strain 3345
Assay: In vitro bioassay: inhibition of virus replication in infected African green monkey kidney cells
Format: cell-based, type 2 herpes simplex virus
Conditions: for Inhibition of hsv2, Effect of bendrofluazide: 0.25 mg bendrofluazide/ml liquid medium; for inhibition at 1000 µg/mL: frusemide 1 mg/ml, African green monkey kidney cells
Source text: In vitro bioassays were undertaken to follow the anti-viral activity of a diuretic compound. […] Inhibition of virus replication was scored on the scale: […]

With `NS(=O)(=O)c1cc2c(cc1C(F)(F)F)NC(Cc1ccccc1)NS2(=O)=O` (stereo not drawn) [bendrofluazide] the “Inhibition of hsv2, Effect of bendrofluazide” value (“Inhibition … of bendrofluazide” below) (High multiplicity of infection) was “++ (40% inhibition)”, the “Inhibition … of bendrofluazide” value (Low multiplicity of infection) was “++++ (80% inhibition)” and the “Inhibition … of bendrofluazide” value (Medium multiplicity of infection) was “++++ (80% inhibition)”.

`NS(=O)(=O)c1cc(C(=O)O)c(NCc2ccco2)cc1Cl` [frusemide, 4-chloro-N-furfuryl-5-sulfamoylanthranilic acid] showed an inhibition at 1000 µg/mL (Human alphaherpesvirus 2, read-out: Inhibition of hsv2, Effect of frusemide, High multiplicity of infection) of 0%, an inhibition at 1000 µg/mL (Human alphaherpesvirus 2, read-out: Inhibition of hsv2, Effect of frusemide, Low multiplicity of infection) of 40% and an inhibition at 1000 µg/mL (Human alphaherpesvirus 2, read-out: Inhibition of hsv2, Effect of frusemide, Medium multiplicity of infection) of 40%.

With `CCCCNC(=O)NS(=O)(=O)c1ccc(C)cc1` [tolbutamide] the “Inhibition of hsv2, effect of tolbutamide” value (from here on “Inhibition … of tolbutamide”) (High multiplicity of infection, 0.5 mg tolbutamide/ml liquid medium) was “+ (20% inhibition)”, the “Inhibition … of tolbutamide” value (High multiplicity of infection, 5 mg tolbutamide/ml liquid medium) was “++ (40% inhibition)” and the “Inhibition … of tolbutamide” value (High multiplicity of infection, 50 mg tolbutamide/ml liquid medium) was “+++ (60% inhibition)”. For the same compound, the “Inhibition … of tolbutamide” value (Low multiplicity of infection, 0.5 mg tolbutamide/ml liquid medium) was “++ (40% inhibition)”, the “Inhibition … of tolbutamide” value (Low multiplicity of infection, 5 mg tolbutamide/ml liquid medium) was “+++ (60% inhibition)” and the “Inhibition … of tolbutamide” value (Low multiplicity of infection, 50 mg tolbutamide/ml liquid medium) was “+++++ (100% inhibition)”. For the same compound, the “Inhibition … of tolbutamide” value (Medium multiplicity of infection, 0.5 mg tolbutamide/ml liquid medium) was “+ (20% inhibition)”, the “Inhibition … of tolbutamide” value (Medium multiplicity of infection, 5 mg tolbutamide/ml liquid medium) was “+++ (60% inhibition)” and the “Inhibition … of tolbutamide” value (Medium multiplicity of infection, 50 mg tolbutamide/ml liquid medium) was “++++ (80% inhibition)”.
